System: TGGCTT (5'-biotin labeled hairpin DNA) (DNA, hairpin) CCTTGGCTTCTTTTGAAGCCAAGG
Assay: SPR, global kinetic 1:1 fit
Details: 50 mM Na+ (NaCl); 10 mM HEPES, 1 mM EDTA, 0.05% P20, pH 7.4, 25 °C

- KA: 37 ± 7 × 10^8 M^-1
Structure (SMILES): CN(C)CCCNC(=O)CCNC(=O)c1cc(NC(=O)c2cc(NC(=O)c3nc(NC(=O)c4cc(NC(=O)CCCNC(=O)c5cc(NC(=O)c6cc(NC(=O)c7nc(NC(=O)c8nccn8C)cn7C)cn6C)cn5C)cn4C)cn3C)cn2C)cn1C

From PMC3567211 (2012)
